The values that follow come from ChEMBL document CHEMBL3507680, “University of Dundee, Gates Library screen for HepG2 cell viability”.

The nature of the data set: Human HepG2 cell viability assay in 384 well format. It counts as toxicity, cell-based. On the set-up: dose 125 nL, time 70.5 hour; cytotoxicity at 70.5 h: concentration not given beside the values. The conditions noted are these: HepG2 cells, read-out: Inhibition.

SMILES strings stand for the structures.

Consider `CCc1ccc(C2CC(=O)Nc3c2c(=O)n(C)c2ncnn32)cc1` (centres undefined), for which the cytotoxicity at 70.5 h was -2.98%.
To `CC(C)C(=O)N1CCC12CCCN(C(=O)c1ccnnc1)C2` (centres undefined) belongs -6.79%; to `O=C(c1c2c(NCC3CC3)ncnc2n2ccccc12)N1CCCC1`, 0.851%; to `O=C(c1c2c(N3CCOCC3)ncnc2n2ccccc12)N1CCCC1`, -3.03%.
In the case of `CS(=O)(=O)N1CCCCC12CCN(c1nncs1)CC2`, the cytotoxicity at 70.5 h is -1.19%.
The result for `CN(C)C(=O)N1CCN(C(=O)c2ccccc2)CC2(CNC(=O)C2)C1` (centres undefined) reads -1.67%; that for `O=C(c1c2c(NCC3CC3)ncnc2n2ccccc12)N1CCOCC1`, -1.89%; that for `CCn1c(=O)c2sccc2n(CC(=O)Nc2cccc(Cl)c2)c1=O`, 8.59%.
The result for `O=c1[nH]nc2c(N3CCC(NC4CCOCC4)CC3)nccn12` reads -11.2%.
The result for `CC1CCN(c2nccn3c(=O)[nH]nc23)CC1` reads -3.79%.
As for `CC1CCCN(c2nccn3c(=O)[nH]nc23)C1` (centres undefined), the cytotoxicity at 70.5 h is -7.92%.
To `CCOCCCNC(=O)CN(c1cccc(F)c1)S(C)(=O)=O` belongs -21.2%; to `COc1cccc(NC(=O)CC2Cn3ncnc3NC2=O)c1` (centres undefined), -10.6%.
To `CCSC1=Nc2c(cnn2-c2ccc(Cl)cc2)C2=NCCCN12` belongs -7.4%.
With `Cn1c(=O)c2c(n3ncnc13)NC(=O)CC2c1cccc(Br)c1` (centres undefined), the cytotoxicity at 70.5 h was -9.38%.
The result for `O=C1CC(c2ccc3c(c2)OCO3)c2cn[nH]c2N1` (centres undefined) reads -11.7%.
To `CCCOc1ccc(C2SCC(=O)Nc3c2c(=O)[nH]n3C(C)C)cc1` (centres undefined) belongs -18.7%; to `O=C(O)CCNC(=O)Cc1csc(-c2cccc(Cl)c2)n1`, -14%.
The result for `CSC1=Nc2c(cnn2-c2cccc(Cl)c2)C2=NCCCN12` reads -12%.
Turning to `Cn1c(=O)c2c(n3ncnc13)NC(=O)CC2c1ccc(F)cc1` (centres undefined), the cytotoxicity at 70.5 h is -11.1%.
The result for `CSC1=Nc2c(cnn2-c2ccc(Cl)cc2)C2=NCCCN12` reads -7.03%.
The result for `COc1cccc(C2CC(=O)Nc3c2c(=O)n(C)c2ncnn32)c1` (centres undefined) reads 16.7%; that for `Cn1c(=O)[nH]c(=O)n2c(CC(=O)Nc3c(Cl)cccc3Cl)cnc12`, -14.2%; that for `NCCc1c(-c2ccc(F)cc2)[nH][nH]c1=O`, -3.38%.
The result for `Cc1ccc(NC(=O)Cc2cnc3n(C)c(=O)[nH]c(=O)n23)cc1` reads -8.62%; that for `Cn1c(=O)[nH]c(=O)n2c(CC(=O)NCc3ccccc3)cnc12`, -12.3%; that for `COC(=O)Cn1c(=O)nc2n1C(=O)N(c1ccc(C)cc1)C2`, 13.2%.
With `CC(C)n1[nH]c(=O)c2c1NC(=O)CC2c1cccc(Br)c1` (centres undefined), the cytotoxicity at 70.5 h was -12.9%.
Take `CC(C)(C)n1ncc2c1NC(=O)CC2c1cccc(O)c1` (centres undefined): the cytotoxicity at 70.5 h is -4.31%.
To `O=C(CSC1CCc2ccccc2NC1=O)NCc1cccs1` (centres undefined) belongs -13.4%.
The result for `O=C(CCSC1CCc2ccccc2NC1=O)NCCCO` (centres undefined) reads -12.2%; that for `O=C(Cn1cc(-c2ccccc2)ncc1=O)Nc1ncc[nH]1`, -12.3%; that for `COc1cccc(NC(=O)Cn2cc(-c3ccccc3)ncc2=O)c1`, -8.81%.
The result for `CC(C)NC(=O)C(NC(=O)N1CCN(c2ccc(Cl)cc2)CC1)C(C)C` (centres undefined) reads -13.3%.
In the case of `O=C(NCc1ccc(F)cc1)C1CCCN(c2ccc3nncn3n2)C1` (centres undefined), the cytotoxicity at 70.5 h was determined as 22%.
To `CC(C)n1nc(Cn2cccn2)c2c1CN(C1CCOCC1)C2` belongs -4.7%; to `CC(C)n1nc(Cn2cccn2)c2c1CN(C1CCOC1)C2` (centres undefined), -4.66%; to `CC(C)n1nc(Cn2cccn2)c2c1CN(CC1CCOC1)C2` (centres undefined), -4.31%.
As for `CC(C)n1nc(Cn2cccc2)c2c1CN(C1CCOCC1)C2`, the cytotoxicity at 70.5 h turned out to be 0.409%.
